Where “and” joins values, the source holds several entries; their conditions need not be identical. Identical values can stand only once. Inconclusive results and toxic doses are left out. Cut-off read from the data, not from the text of the source: active = T/C of 150% or more; inactive = T/C below 125%.
Tested on: L1210 leukemia ip in BDF1 mice, survival T/C
Experiment: NCI In Vivo Anticancer Drug Screen. Data for tumor model L1210 Leukemia (intraperitoneal) in B6D2F1 (BDF1) mice
Conditions: higher = longer survival
In short: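 Transplantable tumor model; survival measured in treated vs vehicle control mice. Value = treated/control.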

[1] = endpoint: mean survival time, dose: 100.0 mg/kg/injection, schedule: Q04DX002 (ip), vehicle: Klucel (hydroxypropylcellulose) (HPC)
[2] = endpoint: mean survival time, dose: 200.0 mg/kg/injection, schedule: Q04DX002 (ip), vehicle: Klucel (hydroxypropylcellulose) (HPC)
[3] = endpoint: mean survival time, dose: 400.0 mg/kg/injection, schedule: Q04DX002 (ip), vehicle: Klucel (hydroxypropylcellulose) (HPC)
[4] = endpoint: mean survival time, dose: 25.0 mg/kg/injection, schedule: Q04DX003 (ip), vehicle: saline with Tween-80
[5] = endpoint: mean survival time, dose: 3.12 mg/kg/injection, schedule: Q01DX009 (ip), vehicle: Klucel (hydroxypropylcellulose) (HPC)
[6] = endpoint: mean survival time, dose: 6.25 mg/kg/injection, schedule: Q01DX009 (ip), vehicle: Klucel (hydroxypropylcellulose) (HPC)
[7] = endpoint: mean survival time, dose: 12.5 mg/kg/injection, schedule: Q01DX009 (ip), vehicle: Klucel (hydroxypropylcellulose) (HPC)

Measured: T/C

CC(=O)O[C@]1(C(C)=O)CC[C@H]2[C@@H]3C[C@H](C)C4=CC(=O)CC[C@]4(C)[C@H]3CC[C@@]21C
inactive: endpoint: mean survival time, dose: 50.0 mg/kg/injection, schedule: Q01DX009 (ip), vehicle: Klucel (hydroxypropylcellulose) (HPC) 109 % of control | endpoint: mean survival time, dose: 100.0 mg/kg/injection, schedule: Q01DX001 (sc), vehicle: steriod suspending solution 102 % of control | endpoint: mean survival time, dose: 100.0 mg/kg/injection, schedule: Q01DX009 (ip), vehicle: Klucel (hydroxypropylcellulose) (HPC) 101 % of control | endpoint: mean survival time, dose: 200.0 mg/kg/injection, schedule: Q01DX001 (sc), vehicle: steriod suspending solution 108 % of control | endpoint: mean survival time, dose: 200.0 mg/kg/injection, schedule: Q01DX009 (ip), vehicle: Klucel (hydroxypropylcellulose) (HPC) 103 % of control | endpoint: mean survival time, dose: 200.0 mg/kg/injection, schedule: Q01DX009 (sc), vehicle: steriod suspending solution 91 % of control | endpoint: mean survival time, dose: 400.0 mg/kg/injection, schedule: Q01DX001 (sc), vehicle: steriod suspending solution 102 % of control | endpoint: mean survival time, dose: 400.0 mg/kg/injection, schedule: Q01DX009 (ip), vehicle: Klucel (hydroxypropylcellulose) (HPC) 100 % of control | endpoint: mean survival time, dose: 400.0 mg/kg/injection, schedule: Q01DX009 (sc), vehicle: steriod suspending solution 94 % of control | endpoint: mean survival time, dose: 600.0 mg/kg/injection, schedule: Q01DX009 (sc), vehicle: steriod suspending solution 96 % of control | endpoint: mean survival time, dose: 800.0 mg/kg/injection, schedule: Q01DX009 (ip), vehicle: Klucel (hydroxypropylcellulose) (HPC) 104 % of control | endpoint: mean survival time, dose: 800.0 mg/kg/injection, schedule: Q01DX009 (sc), vehicle: steriod suspending solution 91 % of control | endpoint: mean survival time, dose: 1000.0 mg/kg/injection, schedule: Q01DX009 (sc), vehicle: steriod suspending solution 94 % of control | endpoint: median survival time, dose: 16.0 mg/kg/injection, schedule: Q03HX008 (ip), vehicle: Klucel (hydroxypropylcellulose) (HPC) 97 % of control | endpoint: median survival time, dose: 16.0 mg/kg/injection, schedule: Q03HX016 (ip), vehicle: Klucel (hydroxypropylcellulose) (HPC) 94 % of control | endpoint: median survival time, dose: 16.0 mg/kg/injection, schedule: Q03HX024 (ip), vehicle: Klucel (hydroxypropylcellulose) (HPC) 96 % of control | endpoint: median survival time, dose: 32.0 mg/kg/injection, schedule: Q03HX008 (ip), vehicle: Klucel (hydroxypropylcellulose) (HPC) 96 % of control | endpoint: median survival time, dose: 32.0 mg/kg/injection, schedule: Q03HX016 (ip), vehicle: Klucel (hydroxypropylcellulose) (HPC) 94 % of control | endpoint: median survival time, dose: 32.0 mg/kg/injection, schedule: Q03HX024 (ip), vehicle: Klucel (hydroxypropylcellulose) (HPC) 95 % of control | endpoint: median survival time, dose: 64.0 mg/kg/injection, schedule: Q01DX009 (ip), vehicle: Klucel (hydroxypropylcellulose) (HPC) 107 % of control | endpoint: median survival time, dose: 64.0 mg/kg/injection, schedule: Q03HX008 (ip), vehicle: Klucel (hydroxypropylcellulose) (HPC) 93 % of control | endpoint: median survival time, dose: 64.0 mg/kg/injection, schedule: Q03HX016 (ip), vehicle: Klucel (hydroxypropylcellulose) (HPC) 94 % of control | endpoint: median survival time, dose: 64.0 mg/kg/injection, schedule: Q03HX024 (ip), vehicle: Klucel (hydroxypropylcellulose) (HPC) 93 % of control | endpoint: median survival time, dose: 128.0 mg/kg/injection, schedule: Q01DX001 (ip), vehicle: Klucel (hydroxypropylcellulose) (HPC) 100 % of control | endpoint: median survival time, dose: 128.0 mg/kg/injection, schedule: Q01DX009 (ip), vehicle: Klucel (hydroxypropylcellulose) (HPC) 105 % of control | endpoint: median survival time, dose: 128.0 mg/kg/injection, schedule: Q03HX008 (ip), vehicle: Klucel (hydroxypropylcellulose) (HPC) 93 % of control | endpoint: median survival time, dose: 128.0 mg/kg/injection, schedule: Q03HX016 (ip), vehicle: Klucel (hydroxypropylcellulose) (HPC) 93 % of control | endpoint: median survival time, dose: 128.0 mg/kg/injection, schedule: Q04DX003 (ip), vehicle: Klucel (hydroxypropylcellulose) (HPC) 102 % of control | endpoint: median survival time, dose: 128.0 mg/kg/injection, schedule: Q08DX002 (ip), vehicle: Klucel (hydroxypropylcellulose) (HPC) 100 % of control | endpoint: median survival time, dose: 256.0 mg/kg/injection, schedule: Q01DX001 (ip), vehicle: Klucel (hydroxypropylcellulose) (HPC) 96 % of control | endpoint: median survival time, dose: 256.0 mg/kg/injection, schedule: Q01DX009 (ip), vehicle: Klucel (hydroxypropylcellulose) (HPC) 104 % of control | endpoint: median survival time, dose: 256.0 mg/kg/injection, schedule: Q04DX003 (ip), vehicle: Klucel (hydroxypropylcellulose) (HPC) 105 % of control | endpoint: median survival time, dose: 256.0 mg/kg/injection, schedule: Q08DX002 (ip), vehicle: Klucel (hydroxypropylcellulose) (HPC) 108 % of control | endpoint: median survival time, dose: 512.0 mg/kg/injection, schedule: Q01DX001 (ip), vehicle: Klucel (hydroxypropylcellulose) (HPC) 100 % of control | endpoint: median survival time, dose: 512.0 mg/kg/injection, schedule: Q01DX009 (ip), vehicle: Klucel (hydroxypropylcellulose) (HPC) 100 % of control | endpoint: median survival time, dose: 512.0 mg/kg/injection, schedule: Q04DX003 (ip), vehicle: Klucel (hydroxypropylcellulose) (HPC) 98 % of control | endpoint: median survival time, dose: 512.0 mg/kg/injection, schedule: Q08DX002 (ip), vehicle: Klucel (hydroxypropylcellulose) (HPC) 100 % of control | endpoint: median survival time, dose: 1024.0 mg/kg/injection, schedule: Q01DX001 (ip), vehicle: Klucel (hydroxypropylcellulose) (HPC) 102 % of control | endpoint: median survival time, dose: 1024.0 mg/kg/injection, schedule: Q01DX009 (ip), vehicle: Klucel (hydroxypropylcellulose) (HPC) 105 % of control | endpoint: median survival time, dose: 1024.0 mg/kg/injection, schedule: Q04DX003 (ip), vehicle: Klucel (hydroxypropylcellulose) (HPC) 114 % of control | endpoint: median survival time, dose: 1024.0 mg/kg/injection, schedule: Q08DX002 (ip), vehicle: Klucel (hydroxypropylcellulose) (HPC) 97 % of control | endpoint: median survival time, dose: 2048.0 mg/kg/injection, schedule: Q01DX001 (ip), vehicle: Klucel (hydroxypropylcellulose) (HPC) 92 % of control | endpoint: median survival time, dose: 2048.0 mg/kg/injection, schedule: Q08DX002 (ip), vehicle: Klucel (hydroxypropylcellulose) (HPC) 95 % of control

N#CCCn1c(=O)n(CCC#N)c(=O)n(CCC#N)c1=O
inactive: [1] 104 % of control | [2] 97 % of control | [3] 93 % of control

CS(=O)(=O)c1ccc(Sc2ccc(S(C)(=O)=O)cc2)cc1
inactive: endpoint: mean survival time, dose: 12.5 mg/kg/injection, schedule: Q01DX009 (ip), vehicle: saline with Tween-80 105 % of control | endpoint: mean survival time, dose: 25.0 mg/kg/injection, schedule: Q01DX009 (ip), vehicle: saline with Tween-80 96 % of control | [4] 98 % of control | endpoint: mean survival time, dose: 50.0 mg/kg/injection, schedule: Q01DX009 (ip), vehicle: saline with Tween-80 92 % of control | endpoint: mean survival time, dose: 50.0 mg/kg/injection, schedule: Q04DX003 (ip), vehicle: saline with Tween-80 94 % of control | endpoint: mean survival time, dose: 100.0 mg/kg/injection, schedule: Q04DX003 (ip), vehicle: saline with Tween-80 93 % of control

CC1CN1C1=C(Br)C(=O)C(N2CC2C)=C(Br)C1=O (stereo not drawn)
inactive: endpoint: mean survival time, dose: 1.56 mg/kg/injection, schedule: Q01DX009 (ip), vehicle: Klucel (hydroxypropylcellulose) (HPC) 95 % of control | endpoint: mean survival time, dose: 1.56 mg/kg/injection, schedule: Q04DX003 (ip), vehicle: saline with Tween-80 98 % of control | [5] 98 % of control | endpoint: mean survival time, dose: 3.12 mg/kg/injection, schedule: Q04DX003 (ip), vehicle: saline with Tween-80 104 % of control | [6] 95 % of control | endpoint: mean survival time, dose: 6.25 mg/kg/injection, schedule: Q04DX003 (ip), vehicle: saline with Tween-80 98 % of control | [7] 90 % of control | endpoint: mean survival time, dose: 12.5 mg/kg/injection, schedule: Q04DX003 (ip), vehicle: saline with Tween-80 95 % of control | [4] 98 % of control

C1=C(c2ccccc2)N(CCc2ccccc2)C(c2ccccc2)=CN1Cc1ccccc1
inactive: [1] 96 % of control | [2] 103 % of control | [3] 92 % of control

C=CC[n+]1ccccc1/C=C/c1ccc(OC)c(OC)c1
inactive: [5] 106 % of control | endpoint: mean survival time, dose: 3.12 mg/kg/injection, schedule: Q04DX003 (ip), vehicle: Klucel (hydroxypropylcellulose) (HPC) 105 % of control | [6] 106 % of control | endpoint: mean survival time, dose: 6.25 mg/kg/injection, schedule: Q04DX003 (ip), vehicle: Klucel (hydroxypropylcellulose) (HPC) 100 % of control | [7] 98 % of control | endpoint: mean survival time, dose: 12.5 mg/kg/injection, schedule: Q04DX003 (ip), vehicle: Klucel (hydroxypropylcellulose) (HPC) 94 % of control and 100 % of control

Cc1ccc2c(ccc3cc(C)ccc32)c1
inactive: [1] 122 % of control | [2] 101 % of control | [3] 97 % of control

Reference: PubChem BioAssay AID248 (DTP/NCI, 2004)
